Results on three compounds are retold here after BindingDB's records for doi:10.1016/s0960-894x(98)00264-9 (Royal Danish School of Pharmacy, 1999).

Broadly, the EC50 is the concentration at which the effect is half-maximal. Low readings indicate an effect from little substance, high ones a need for much substance.

The nature of assay [1]: Compound was evaluated for agonistic activity against mGluR2 alpha metabotropic receptor subtype in rat cortical slice model.
Assay [2] is described as follows: Compound was evaluated for agonistic activity against mGluR4a alpha metabotropic receptor subtype in rat cortical slice model.

Consider `O=C(O)C(NCc1ccccc1)c1cc(=O)[nH]o1` (stereo unspecified) [Benzylamino-(3-hydroxy-isoxazol-5-yl)-acetic acid], for which the EC50 in assay [1] and in assay [2] was greater than 1000 µM each time.
Turning to `CNC(C(=O)O)c1cc(=O)[nH]o1` (stereo unspecified) [(3-Hydroxy-isoxazol-5-yl)-methylamino-acetic acid], the EC50 in assay [1] and in assay [2] was greater than 1000 µM throughout.
As for `CCNC(C(=O)O)c1cc(=O)[nH]o1` (stereo unspecified) [Ethylamino-(3-hydroxy-isoxazol-5-yl)-acetic acid], the EC50 in assay [1] and in assay [2] was greater than 1000 µM in each case.
